Measurements from patent publication US6653305B2, “Bicyclic heterocycles, pharmaceutical compositions containing them, their use, and processes for preparing them” (Boehringer Ingelheim Pharma KG, priority 2000, dated 2003).

Tests used:
human EGF-R = molecular target: T1, human EGF-R (Homo sapiens, UniProt P00533); test: Inhibition of EGF-dependent proliferation of F/L-HERc cells (Cell Titer 96 assay); type: cell-based; conditions: F/L-HERc cells (murine IL-3-dependent line expressing human EGF-R), stimulated with EGF 20 ng/ml, 48 hours at 37° C.
T1 construct: expressed in transfected cells; host or cells: F/L-HERc cells (murine IL-3-dependent FDC-P1 line transduced with LXSN retroviral vector carrying human EGF-R cDNA; packaging line GP+E86)
Source text: A cell line of murine origin dependent on interleukin-3-(IL-3) which was genetically modified to express functional human EGF-R was used here. The proliferation of these cells known as F/L-HERc can therefore be stimulated either by murine IL-3 or by EGF (cf. T. von Rüden et al. in EMBO J. 7, 2749-2756 (1988) and J. H. Pierce et al. in Science 239, 628-631 (1988)).
The starting material used for the F/L-HERc cells was the cell line FDC-P1, the production of which has been described by T. M. Dexter et al. in J. Exp. Med. 152, 1036-1047 (1980). Alternatively, however, other growth-factor-dependent cells may also be used (cf., for example, J. H. Pierce et al. in Science 239, 628-631 (1988), H. Shibuya et al. in Cell 70, 57-67 (1992) and W. S. Alexander et al. in EMBO J. 10, 3683-3691 (1991)). For expressing the human EGF-R cDNA (cf. A. Ullrich et al. in Nature 309, 418-425 (1984)) recombinant retroviruses were used as described by T. von Rüden et al., EMBO J. 7, 2749-2756 (1988), except that the retroviral vector LXSN (cf. A. D. Miller et al. in BioTechniques 7, 980-990 (1989)) was used for the expression of the EGF-R cDNA and the line GP+E86 (cf. D. Markowitz et al. in J. Virol. 62, 1120-1124 (1988)) was used as the packaging cell.
The test was performed as follows:
F/L-HERc cells were cultivated in RPMI/1640 medium (Bio Whittaker), supplemented with 10% fetal calf serum (FCS, Boehringer Mannheim), 2 mM glutamine (Bio Whittaker), standard antibiotics and 20 ng/ml of human EGF (Promega), at 37° C. and 5% CO2. In order to investigate the inhibitory activity of the compounds according to the invention, 1.5×10^4 cells per well were cultivated in triplicate in 96-well dishes in the above medium (200 μl), the cell proliferation being stimulated with either EGF (20 ng/ml) or murine IL-3. […]
In order to determine the inhibitory activity of the compounds according to the invention the relative cell number was measured in O.D. units using the Cell Titer 96™ Aqueous Non-Radioactive Cell Proliferation Assay (Promega). […]

T1 sequence (P00533 25-1210): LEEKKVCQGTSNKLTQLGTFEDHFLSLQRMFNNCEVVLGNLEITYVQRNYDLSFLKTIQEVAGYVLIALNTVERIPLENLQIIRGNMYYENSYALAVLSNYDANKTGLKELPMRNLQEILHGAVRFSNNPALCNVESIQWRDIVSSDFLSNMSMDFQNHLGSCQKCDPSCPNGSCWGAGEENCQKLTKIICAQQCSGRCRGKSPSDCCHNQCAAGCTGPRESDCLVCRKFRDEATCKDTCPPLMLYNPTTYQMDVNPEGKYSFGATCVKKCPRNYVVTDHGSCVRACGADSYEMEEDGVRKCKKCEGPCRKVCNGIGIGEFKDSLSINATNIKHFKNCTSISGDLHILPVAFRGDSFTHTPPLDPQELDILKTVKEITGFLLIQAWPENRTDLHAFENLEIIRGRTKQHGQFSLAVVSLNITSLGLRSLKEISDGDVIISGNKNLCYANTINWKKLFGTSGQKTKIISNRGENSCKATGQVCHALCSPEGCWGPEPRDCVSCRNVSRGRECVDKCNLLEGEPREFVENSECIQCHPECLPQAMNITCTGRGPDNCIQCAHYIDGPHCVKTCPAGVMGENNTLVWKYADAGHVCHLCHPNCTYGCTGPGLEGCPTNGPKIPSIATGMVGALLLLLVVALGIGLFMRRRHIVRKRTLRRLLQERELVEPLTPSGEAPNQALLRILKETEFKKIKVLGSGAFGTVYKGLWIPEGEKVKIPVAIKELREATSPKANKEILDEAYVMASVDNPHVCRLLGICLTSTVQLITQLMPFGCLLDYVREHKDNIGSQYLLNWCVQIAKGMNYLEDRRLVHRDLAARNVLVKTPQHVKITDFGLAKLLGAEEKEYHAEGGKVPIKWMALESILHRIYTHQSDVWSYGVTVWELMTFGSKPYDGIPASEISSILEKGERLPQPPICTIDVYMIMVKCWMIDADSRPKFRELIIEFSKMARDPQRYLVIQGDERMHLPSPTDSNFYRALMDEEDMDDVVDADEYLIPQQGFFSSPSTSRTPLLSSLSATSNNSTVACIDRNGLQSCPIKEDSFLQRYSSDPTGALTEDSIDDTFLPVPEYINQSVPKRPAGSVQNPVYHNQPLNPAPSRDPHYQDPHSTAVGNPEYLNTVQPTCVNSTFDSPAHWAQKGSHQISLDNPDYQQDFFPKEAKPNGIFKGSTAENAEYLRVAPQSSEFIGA

SMILES	melting point [°C]	IC50 (human EGF-R) [nM]
CN(CC=CC(=O)Nc1cc2c(Nc3ccc(F)c(Cl)c3)ncnc2cc1OCC1CC1)CC1OCCO1 [1(2), 4-[(3-chloro-4-fluorophenyl)amino]-6-[(4-{N-[(1,3-dioxolan-2-yl)methyl]-N-methylamino}-1-oxo-2-buten-1-yl)amino]-7-cyclopropylmethoxyquinazoline]	121	0.02
C[C@@H]1CN(CC=CC(=O)Nc2cc3c(Nc4ccc(F)c(Cl)c4)ncnc3cc2OCC2CC2)CC(=O)O1 [2(1), 4-[(3-chloro-4-fluorophenyl)amino]-6-{[4-((R)-6-methyl-2-oxomorpholin-4-yl)-1-oxo-2-buten-1-yl]amino}-7-cyclopropylmethoxyquinazoline]	–	9
C[C@H]1C(=O)OCCN1CC=CC(=O)Nc1cc2c(Nc3ccc(F)c(Cl)c3)ncnc2cc1OCC1CC1 [Example 2(2), 4-[(3-chloro-4-fluorophenyl)amino]-6-{[4-((S)-3-methyl-2-oxomorpholin-4-yl)-1-oxo-2-buten-1-yl]amino}-7-cyclopropylmethoxyquinazoline]	182	–
C[C@@H]1CN(CC=CC(=O)Nc2cc3c(Nc4ccc(F)c(Cl)c4)ncnc3cc2O[C@@H]2CCOC2)CC(=O)O1 [Example 2(7), 4-[(3-chloro-4-fluorophenyl)amino]-6-{[4-((R)-6-methyl-2-oxomorpholin-4-yl)-1-oxo-2-buten-1-yl]amino}-7-[(R)-(tetrahydrofuran-3-yl)oxy]quinazoline]	230	–

Further lines, results first:

melting point [°C]	IC50 (human EGF-R) [nM]	SMILES
196	–	C[C@@H]1CN(CC=CC(=O)Nc2cc3c(Nc4ccc(F)c(Cl)c4)ncnc3cc2OCC2CCOCC2)CC(=O)O1 [Example 2(19), 4-[(3-chloro-4-fluorophenyl)amino]-6-{[4-((R)-6-methyl-2-oxomorpholin-4-yl)-1-oxo-2-buten-1-yl]amino}-7-[(tetrahydropyran-4-yl)methoxy]quinazoline]
196 to 199	–	C[C@H]1CN(CC=CC(=O)Nc2cc3c(Nc4ccc(F)c(Cl)c4)ncnc3cc2OCC2CCOCC2)CC(=O)O1 [Example 2(21), 4-[(3-chloro-4-fluorophenyl)amino]-6-{[4-((S)-6-methyl-2-oxomorpholin-4-yl)-1-oxo-2-buten-1-yl]amino}-7-[(tetrahydropyran-4-yl)methoxy]quinazoline]
–	15	C[C@H]1CN(CC=CC(=O)Nc2cc3c(Nc4ccc(F)c(Cl)c4)ncnc3cc2OCC2CC2)CC(=O)O1 [Example 2, 4-[(3-chloro-4-fluorophenyl)amino]-6-{[4-((S)-6-methyl-2-oxomorpholin-4-yl)-1-oxo-2-buten-1-yl]amino}-7-cyclopropylmethoxyguinazoline]
